Assay results from ChEMBL document CHEMBL4359905, “Discovery, structural insight, and bioactivities of BY27 as a selective inhibitor of the second bromodomains of BET proteins” (Eur J Med Chem, 2019).

Columns and labels:
[1] = biological target: T1, Bromodomain-containing protein 4 (Homo sapiens, UniProt O60885); test: Binding affinity to human recombinant BRD4 BD2 (333 to 460 residues) by fluorescence polarization assay
MV4-11 = test: Antiproliferative activity against human MV4-11 cells assessed as cell growth inhibition after 4 days by CCK8 assay; type: functional, cell-based; conditions: MV4-11, 96 h
MM1.S = test: Antiproliferative activity against human MM1S cells assessed as cell growth inhibition after 4 days by CCK8 assay; type: functional, cell-based; conditions: 96 h
[2] = biological target: T1, Bromodomain-containing protein 4; test: Binding affinity to human recombinant BRD4 BD1 (44 to 168 residues) by fluorescence polarization assay

Row | SMILES | Ki [1] [nM] | IC50 (MV4-11) [nM] | IC50 (MM1.S) [nM] | Ki [2] [nM]
1 | Cc1nnc2n1-c1ccc(-c3ccc(N)nc3)cc1C(Nc1cc(C3CC3)nn1C)CC2 (centres undefined) | 376 |  |  | 1960
2 | Cc1nnc2n1-c1ccc(NS(C)(=O)=O)cc1C(Nc1ccc(Cl)cc1)CC2 (centres undefined) | 918 | 4820 | 9060 | 3350
3 | Cc1nnc2n1-c1ccc(-c3ccc(N)nc3)cc1C(Nc1cccc(CO)c1)CC2 (centres undefined) | 128 |  |  | 1960
4 | Cc1nnc2n1-c1ccc(C3=CCNCC3)cc1C(Nc1ccc(Cl)cc1)CC2 (centres undefined) | 284 | 2290 | 5700 | 4450
5 | Cc1ccc(NC2CCc3nnc(C)n3-c3ccc(-c4ccc(N)nc4)cc32)cc1 (centres undefined) | 109 |  |  | 540
6 | COc1ccc2c(c1)C(Nc1ccc(Cl)cc1)CCc1nnc(C)n1-2 (centres undefined) | 249 | 1160 | 1400 | 1300
7 | Cc1nnc2n1-c1ccc(Br)cc1C(Nc1ccc(Cl)cc1)CC2 (racemic) | 736 | 2040 | 5310 | > 2000
8 | Cc1nnc2n1-c1ccc(-c3cnn(C)c3)cc1[C@@H](Nc1ccc(Cl)cc1)CC2 | 945 | 7730 | 4240 | 5000
9 | Cc1nnc2n1-c1ccc(-c3ccc(N)nc3)cc1C(Nc1ccc(C(F)(F)F)cc1)CC2 (centres undefined) | 147 |  |  | 576
10 | Cc1nnc2n1-c1ccc(-c3ccc(N)nc3)cc1C(Nc1nn(C)c3ccccc13)CC2 (centres undefined) | 617 |  |  | 10600
11 | Cc1nnc2n1-c1ccc(N)cc1C(Nc1ccc(Cl)cc1)CC2 (centres undefined) | 1230 | 4330 | 7950 | 11100
12 | COc1ccc(NC2CCc3nnc(C)n3-c3ccc(-c4ccc(N)nc4)cc32)cc1 (centres undefined) | 174 |  |  | 1910

Compounds with a lower Ki [1], results first:

Row | Ki [1] [nM] | IC50 (MV4-11) [nM] | IC50 (MM1.S) [nM] | Ki [2] [nM] | SMILES
13 | 34.8 | 374 | 345 | 266 | Cc1nnc2n1-c1ccc(-c3cncs3)cc1C(Nc1ccc(Cl)cc1)CC2 (centres undefined)
14 | 74.7 | 500 | 345 | 535 | Cc1nnc2n1-c1ccc(-c3ccnc(N)c3)cc1C(Nc1ccc(Cl)cc1)CC2 (centres undefined)
15 | 24.7 | 116 | 535 | 419 | Cc1nnc2n1-c1ccc(-c3cnn(C)c3)cc1C(Nc1ccc3ccccc3c1)CC2 (centres undefined)
16 | 50.3 | 1030 | 1440 | 457 | CC(=O)Nc1ccc2c(c1)C(Nc1ccc(Cl)cc1)CCc1nnc(C)n1-2 (centres undefined)
17 | 54.4 | 165 | 258 | 372 | Cc1nnc2n1-c1ccc(-c3ccc(CCN4CCN(C)CC4)cc3)cc1C(Nc1ccc(Cl)cc1)CC2 (centres undefined)
18 | 65.4 | 1950 | 1020 | 466 | Cc1nnc2n1-c1ccc(-c3ccc(N(C)C)cc3)cc1C(Nc1ccc(Cl)cc1)CC2 (centres undefined)
19 | 17.4 | 70.8 | 210 | 115 | Cc1nnc2n1-c1ccc(-c3ccc(N4CCN(C)CC4)cc3)cc1C(Nc1ccc(Cl)cc1)CC2 (centres undefined)
20 | 12.3 | 127 | 110 | 81.7 | Cc1nnc2n1-c1ccc(-c3ccc(CCCN4CCN(C)CC4)cc3)cc1C(Nc1ccc(Cl)cc1)CC2 (centres undefined)
21 | 41.5 |  |  | 712 | Cc1nnc2n1-c1ccc(-c3ccc(N)nc3)cc1C(Nc1cccc3ccccc13)CC2 (centres undefined)
22 | 102 | 2410 | 8510 | 1490 | Cc1nnc2n1-c1ccc(NC(=O)C3CCN(C)CC3)cc1C(Nc1ccc(Cl)cc1)CC2 (centres undefined)
23 | 92.6 |  |  | 725 | Cc1nnc2n1-c1ccc(-c3ccc(N)nc3)cc1C(Nc1ccc(F)cc1)CC2 (centres undefined)
24 | 68.4 |  |  | 636 | Cc1nnc2n1-c1ccc(-c3ccc(N)nc3)cc1C(Nc1ccc(Cl)cc1)CC2 (centres undefined)
25 | 66.2 | 401 | 1020 | 726 | Cc1nnc2n1-c1ccc(-c3cnc(N)nc3)cc1C(Nc1ccc(Cl)cc1)CC2 (centres undefined)
26 | 80.6 |  |  | 508 | Cc1nnc2n1-c1ccc(-c3ccc(N)nc3)cc1C(Nc1ccc(C#N)cc1)CC2 (centres undefined)
